Target: T1, Recombinant Mouse Matriptase (Mus musculus, UniProt P56677)
T1 sequence (P56677 615-855 limits assumed): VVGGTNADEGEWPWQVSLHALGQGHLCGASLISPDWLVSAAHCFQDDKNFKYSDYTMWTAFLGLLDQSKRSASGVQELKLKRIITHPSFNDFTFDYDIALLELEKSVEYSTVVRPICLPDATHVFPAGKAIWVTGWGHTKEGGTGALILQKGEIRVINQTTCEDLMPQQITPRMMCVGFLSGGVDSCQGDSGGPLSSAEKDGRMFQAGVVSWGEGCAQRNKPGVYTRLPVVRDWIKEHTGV
Experiment: fluorogenic AMC release from Boc-QAC-AMC
Assay type: biochemical

N=C(N)c1ccc2cc(OC(=O)c3ccc(N=C(N)N)cc3)ccc2c1 [Nafamostat mesilate]
IC50: 0.86 nM

— doi:10.1101/843607v1 (biorxiv, 2019)
